Here are results for three compounds from patent publication US20230174584A1, “Antibiotic Compounds” (priority 2019, published 2023).

≈ marks a conversion by molar mass, not a printed value.

Holding throughout (experiment): MIC assay, VISA and VRSA panel
Holding throughout (format): cell-based, Staphylococcus aureus

One assay relates to VRS9. As for the experimental part: (§1) The antibacterial activity of the compounds was tested against a panel of bacteria, including Gram-positive bacteria (S. aureus ATCC29213, S. aureus USA300, S. aureus LIM-2, NR-45881, S. aureus HIP13419, NR-46413, E. faecium E155, E. faecium E7314, E. faecium E980, E. faecalis E1246, E. faecalis E7406 and S. pneumonia 153). The antibacterial activity of the compounds was further tested against S. aureus NY-155, NR-46236, S. aureus HIP12864, NR-46074, S. aureus 880 (BR-VRSA), NR-49120, E. faecalis E1246, E. faecalis E7604, as well as some Gram-negative bacteria (Escherichia coli and Klebsiella pneumoniae). Minimum inhibitory concentrations (MICs) in μg/mL were performed according to the CLSI guidelines. From glycerol stocks, bacterial strains were cultured on blood agar plates and incubated at 37° C. for 18 h. A single colony was transferred to tryptic soy broth (TSB) with 0.002% polysorbate 80 (p80). For the Enterococcus, VISA and VRSA strains, the cultures were grown at 37° C. until the optical density of the suspension reached a level equivalent to the 0.5 McFarland standard. The bacterial suspensions were diluted in TSB with 0.002% p80 to reach a bacterial cell density of 10^6 CFU/mL. In case of the other (vancomycin-sensitive) S. aureus strains, the direct colony suspension method was used. For these strains, after transfer of the colonies to TSB with 0.002% p80, they were immediately diluted to 10^6 CFU/mL, instead of incubated prior to this dilution. In the case of S. pneumonia, direct colony suspension was used by immediately suspending multiple colonies from fresh blood agar plates in TSB+0.002% p80 to an OD600 of 0.5 and subsequent dilution to 10^6 CFU mL^−1 in TSB+0.002% p80+5% lysed horse blood. Antibiotic dilutions for this strains were also made in TSB+0.002% p80+5% lysed horse blood. Both agar and microplates containing S. pneumonia were incubated at 37° C. with 5% CO2 for 24 h with constant shaking (600 rpm). […] The cultures were grown to exponential phase (OD600=0.5) at 37° C. […] In polypropylene 96-well microtiter plates, test compounds were added in biological triplicates and serial diluted 2-fold by transfer and mixing from one well to the next to achieve a final volume of 50 μL per well. An equal volume of bacterial suspension (10^6 CFU mL^−1) was added to the wells. The plates were sealed with breathable membranes and incubated at 37° C. for 24 h with constant shaking (600 rpm). In polypropylene microtiter plates, 100 μL of the test compounds was added to the first row in biological triplicates, and 50 μL of media was added to the other wells. The compounds were subjected to serial dilution by transfer and mixing of 50 μL from one well to the next. Subsequently, 50 μL of bacterial suspension (10^6 CFU/mL) was added to the wells. The plates were sealed with breathable membranes and incubated at 37° C. for 24 h with constant shaking (600 rpm). Positive growth control consisted of wells with bacterial suspension and without antibiotic. Negative growth control consisted of solely media without bacterial suspension or antibiotic. The MICs were determined from the median of a minimum of triplicates.

The test system of another assay is NRS18. As for the experimental part: as §1
The subject of another assay is VRS11a. As for the experimental part: as §1
The next assay relates to VRS2. As for the experimental part: as §1
The subject of the next assay is NRS51. Here is the method: as §1
A further assay has as its system NRS19. Here is the method: as §1
In the next assay the test system is VRSA3b. As for the experimental part:
as §1

Another assay has as its system NRS63SH. Here is the method: as §1
Another assay has as its system VRS8. As for the experimental part:
as §1

For a further assay, the system named is NRS17. As for the experimental part: as §1
The next assay has as its system VRS5. Here is the method:
as §1

In the next assay the test system is VRS4. As for the experimental part:
as §1

In another assay the test system is NRS52. Here is the method: as §1
For the next assay, the system named is VRS7. As for the experimental part: as §1
The subject of a further assay is VRS11b. As for the experimental part: as §1

In the case of `CCCCCCN(CCCCCC)C(N)=Nc1ccc(CN[C@@]2(C)C[C@H](O[C@H]3[C@H](Oc4c5cc6cc4Oc4ccc(cc4Cl)[C@@H](O)[C@@H](NC(=O)[C@@H](CC(C)C)NC)C(=O)N[C@@H](CC(N)=O)C(=O)N[C@H]6C(=O)N[C@H]4C(=O)N[C@H](C(=O)N[C@H](C(=O)O)c6cc(O)cc(O)c6-c6cc4ccc6O)[C@H](O)c4ccc(c(Cl)c4)O5)O[C@H](CO)[C@@H](O)[C@@H]3O)O[C@@H](C)[C@H]2O)cc1` [Compound 12], the MIC against VRS9 (strain VRS9) was 4 µg/mL (≈ 2.27 µM); with NRS18 (strain NRS18) it was 0.25 µg/mL (≈ 0.142 µM); with VRS11a (strain VRS11a), 4 µg/mL (≈ 2.27 µM); in the assay on VRS2 (strain VRS2) it was less than 0.016 µg/mL; against NRS51 (strain NRS51) it was 0.125 µg/mL (≈ 0.0708 µM); against NRS19 (strain NRS19) it was 0.25 µg/mL (≈ 0.142 µM). In addition, the MIC was found to be 0.25 µg/mL (≈ 0.142 µM) against VRSA3b (strain VRSA3b); 2 µg/mL (≈ 1.13 µM) in the assay with NRS63SH (strain NRS63SH); 4 µg/mL (≈ 2.27 µM) with VRS8 (strain VRS8); 0.5 µg/mL (≈ 0.283 µM) with NRS17 (strain NRS17); 1 µg/mL (≈ 0.567 µM) in the assay with VRS5 (strain VRS5); 2 µg/mL (≈ 1.13 µM) against VRS4 (strain VRS4). The MIC with NRS52 (strain NRS52) worked out at 0.031 µg/mL (≈ 0.0176 µM); against VRS7 (strain VRS7) it was 2 µg/mL (≈ 1.13 µM); in the assay with VRS11b (strain VRS11b) it was 4 µg/mL (≈ 2.27 µM).
For the compound `CN[C@H](CC(C)C)C(=O)N[C@H]1C(=O)N[C@@H](CC(N)=O)C(=O)N[C@H]2C(=O)N[C@H]3C(=O)N[C@H](C(=O)N[C@H](C(=O)O)c4cc(O)cc(O)c4-c4cc3ccc4O)[C@H](O[C@H]3C[C@](C)(N)[C@@H](O)[C@H](C)O3)c3ccc(c(Cl)c3)Oc3cc2cc(c3O[C@@H]2O[C@H](CO)[C@@H](O)[C@H](O)[C@H]2O[C@H]2C[C@](C)(NCc3ccc(-c4ccc(Cl)cc4)cc3)[C@@H](O)[C@H](C)O2)Oc2ccc(cc2Cl)[C@H]1O` [Oritavancin], the MIC in the assay on VRS9 (Staphylococcus aureus) was 2 µg/mL (≈ 1.12 µM); in the assay with NRS18 (Staphylococcus aureus, NRS18) it was 1 µg/mL (≈ 0.558 µM); against VRS11a (Staphylococcus aureus), 1 µg/mL (≈ 0.558 µM); in the assay on VRS2 (Staphylococcus aureus), 0.25 µg/mL (≈ 0.139 µM); in the assay with NRS51 (Staphylococcus aureus, NRS51), 0.5 µg/mL (≈ 0.279 µM); against NRS19 (Staphylococcus aureus, NRS19), 1 µg/mL (≈ 0.558 µM). In addition, the MIC against VRSA3b (Staphylococcus aureus) is 0.25 µg/mL (≈ 0.139 µM); in the assay on NRS63SH (Staphylococcus aureus) it was 1 µg/mL (≈ 0.558 µM); in the assay with VRS8 (Staphylococcus aureus) it was 1 µg/mL (≈ 0.558 µM); against NRS17 (Staphylococcus aureus, NRS17) it was 4 µg/mL (≈ 2.23 µM); in the assay with VRS5 (Staphylococcus aureus), 0.5 µg/mL (≈ 0.279 µM); in the assay on VRS4 (Staphylococcus aureus) it was 1 µg/mL (≈ 0.558 µM). Also, the MIC with NRS52 (Staphylococcus aureus, NRS52) came to 0.5 µg/mL (≈ 0.279 µM); in the assay with VRS7 (Staphylococcus aureus), 0.5 µg/mL (≈ 0.279 µM); with VRS11b (Staphylococcus aureus) it was 1 µg/mL (≈ 0.558 µM).
With `CCCCCCCCCCNCCN[C@@]1(C)C[C@H](O[C@H]2[C@H](Oc3c4cc5cc3Oc3ccc(cc3Cl)[C@@H](O)[C@@H](NC(=O)[C@@H](CC(C)C)NC)C(=O)N[C@@H](CC(N)=O)C(=O)N[C@H]5C(=O)N[C@H]3C(=O)N[C@H](C(=O)N[C@H](C(=O)O)c5cc(O)c(CNCP(=O)(O)O)c(O)c5-c5cc3ccc5O)[C@H](O)c3ccc(c(Cl)c3)O4)O[C@H](CO)[C@@H](O)[C@@H]2O)O[C@@H](C)[C@H]1O` [Telavancin, reference compound], the minimum inhibitory concentration (MIC) worked out at 16 µg/mL (≈ 9.11 µM) against VRS9 (Staphylococcus aureus); 0.25 µg/mL (≈ 0.142 µM) with NRS18 (Staphylococcus aureus, NRS18); 8 µg/mL (≈ 4.56 µM) in the assay with VRS11a (Staphylococcus aureus); 2 µg/mL (≈ 1.14 µM) in the assay with VRS2 (Staphylococcus aureus); 0.125 µg/mL (≈ 0.0712 µM) in the assay on NRS51 (Staphylococcus aureus, NRS51); 0.25 µg/mL (≈ 0.142 µM) with NRS19 (Staphylococcus aureus, NRS19). Moreover, the MIC in the assay on VRSA3b (Staphylococcus aureus) came to 4 µg/mL (≈ 2.28 µM); with NRS63SH (Staphylococcus aureus) it was 8 µg/mL (≈ 4.56 µM); in the assay with VRS8 (Staphylococcus aureus) it was 16 µg/mL (≈ 9.11 µM); against NRS17 (Staphylococcus aureus, NRS17), 1 µg/mL (≈ 0.57 µM); against VRS5 (Staphylococcus aureus) it was 4 µg/mL (≈ 2.28 µM); against VRS4 (Staphylococcus aureus) it was 4 µg/mL (≈ 2.28 µM). The MIC with NRS52 (Staphylococcus aureus, NRS52) was 0.25 µg/mL (≈ 0.142 µM); in the assay with VRS7 (Staphylococcus aureus) it was 4 µg/mL (≈ 2.28 µM); against VRS11b (Staphylococcus aureus), 8 µg/mL (≈ 4.56 µM).
